Experimental data: patent US8765689B2, “Anti-ageing peptides modulating survivin and compositions including same” (ISP Investments Inc., priority 2010, dated 2014)
Ends that are not written are not given here.

Legend:
Keratin K19 = Keratin K19 immunolabeling in UV-irradiated hair follicles maintained in culture; format: cell-based; details: hair follicles treated with 1% peptide 24 hours before UV irradiation (UVA 5 J/cm, UVB 200 mJ/cm^2); image analysis
Method: The hair follicles were sampled from a biopsy using a scalpel and fine pliers, and then cultured in 24-well plates using William's E medium in the presence of antibiotics (0.2% Primocin), 10 μg/ml insulin, 10 ng/ml hydrocortisone and 2 mmol/L L-glutamine.
The follicles were either treated or not with the 1% peptide compound SEQ ID NO: 2 in Williams' medium and then incubated for 24 hours. UV irradiation was then applied (UVA: 5 J/cm, UVB 200 mJ/cm^2), and the follicles were then re-cultured for 24 hours. At the end of the experiment, the follicles were incorporated within OCT and frozen at −196° C. (liquid nitrogen). The follicles were then placed in a cryostat in order to prepare 6-μm sections at a temperature of −23° C. The slides containing the sections were placed in an acetone bath for 10 minutes (fixing) and then rinsed.
The fixed sections were rinsed once with PBS for 5 minutes, and then wrapped in Pappen. Each section was incubated with 5 μl 5%-BSA for 30 minutes. Then, 50 μl of primary anti-Cytokeratin K19 antibody (Progen, Mouse monoclonal) diluted to 1/50th were added and incubated for one hour with stirring in a humid chamber. After rinsing with PBS for 30 minutes, 50 μl of a fluorescence-labeled secondary antibody was added and left for one hour in the dark with stirring in a humid chamber. […]

[1] = tested on: cellular fraction RA (enriched with epidermal adult stem cells); assay: Comets test on cellular fraction RA after UVB irradiation; format: cell-based, human; details: RA cells cultured 24 hours with peptide at 1%, then UVB 60 mJ/cm^2
Method: The comets test is a test that allows damage caused to DNA to be quantified at a cellular level.
To this end, in order to confirm the protective effect of a peptide compound according to the present invention, cells of the RA type were cultured for 24 hours with the peptide compound of sequence SEQ ID NO: 2 at a concentration of 1%, and then irradiated with
UVB radiation at 60 mJ/cm^2. […] The cells were then removed by trypsination from their carrier, and then centrifuged at 900 rpm for 5 minutes before being concentrated and counted.
A specific cell count (25,000 cells) was then incorporated into a 0.75% Low Melting agarose gel, and then deposited on a glass slide previously coated with 1% agarose. The slides were then immersed in a lysis solution for 1.5 hours at 4° C., and then in an alkaline solution for 20 minutes at 4° C. The cells were then lysed and the DNA denatured. The slides were immersed in an electrophoresis solution before applying an electric field (20 V-250 mA). The thus denatured DNA was subjected to migration within an agarose gel at 4° C. Applying a DNA fluorescent dye on the slides (2 μg/ml propidium iodide) allowed the DNA to be observed in the form of comets in those cases where it had been damaged.
Quantification software is used to determine the average Tail moment applied to each condition being tested. […]

Survivin protein = Survivin protein expression by Western Blotting on cultured cellular fractions RA and SA1; format: cell-based, human; details: 48 hours, compound diluted to 3% (from a 10^-4 M solution)
Method: To investigate the role of the CPC proteins in the maintenance and protection of epidermal adult stem cells under various types of stress, several fractions of primary cells of human epidermis were prepared. Fractioning was carried out based on the adhesion time of cells to collagen IV: less than 20 minutes corresponds to fast adhesion (fraction RA), less than 5 hours, to slow adhesion No 1 (fraction SA1), less than 16 hours, to slow adhesion No 2 (fraction SA2), and lastly, non-adhering keratinocytes (fractions NA). […]
An investigation of the modulator effect of the peptide SEQ ID NO: 2 was conducted by evaluating the expression of the Survivin protein by Western Blotting on the cultured cellular fractions RA and SA1. The Western Blot technique is a conventional semi-quantitative method for assessing the proportion of proteins in cells.
Fractions RA and SA1 were grown in boxes 100 mm in diameter at 37° C. in a humidified atmosphere containing 5% CO2 for 48 hours with or without the compound, diluted to 3% (from a 10^−4 M solution). […] The quantitative evaluation of the proteins in the cells is performed using the Chemiimager software (Alpha Innotech Corporation USA). The amount of proteins is expressed as a percentage of the light intensity compared with that of the control conditions, under which no treatment has been received.

[2] = tested on: RA and TOTAL keratinocytes; assay: MITOSOX test (mitochondrial production of free radicals under H2O2 or UVB stress); format: cell-based, human; details: peptide at 1% and 3%, 48 hours, stress 5 mM H2O2 30 minutes or UVB 100 mJ/cm^2
Description: Mitosox is a reactant marketed by Invitrogen (molecular probes M36008). It is used during UV and H2O2 oxidative stress. It uses microscopic imaging to measure the mitochondrial production of free radicals (ROS) in cells. More particularly, Mitosox is specific to the superoxide anion, which is the predominant form of ROS.
Mitosox is applied to living cells: it permeates the membrane and once inside the cell, diffuses rapidly and specifically within the mitochondria. Once in the mitochondria, Mitosox is oxidized by the superoxide anion into a compound which provides red fluorescence. This reactant is easily oxidized by the superoxide anion but not by other free radicals, nor by reactive species of nitrogen (NOS).
RA and TOTAL keratinocytes (where TOTAL denotes an entire cellular fraction) were treated three times per day with the peptide compound of SEQ ID NO: 3 at concentrations of 1% and 3%, for 48 hours.
In a second step, the cells were placed under stress, caused: • either by exposure to 5 mM H2O2 solution for 30 minutes; • or by UVB radiation at 100 mJ/cm^2.
After stress application, the cells were rinsed and then returned into a suitable medium for one hour at 37° C. in a culture incubator. […] The results were read using fluorescence microscopy.

Substance | fluorescent values of Keratin K19 (Keratin K19) | Tail Moment decrease vs UVB control [1] | expression of the Survivin protein (Survivin protein; fraction RA (very rich in epidermal adult stem cells)) | expression of the Survivin protein (Survivin protein; fraction SA1 (less rich in epidermal adult stem cells)) | number of fluorescent cells (Mitosox, free radical production) [2]
Arg-Glu-Met-Asn-Trp-NH2 (REMNW-NH2) [SEQ ID NO: 2] | +102.7% | 44.7% | increased | increased | –
DAREMNWDT [SEQ ID NO: 3] | – | – | – | – | extremely low
